Assay [1] concerns the target Kappa-type opioid receptor (Homo sapiens, UniProt P41145). The assay is described as follows: SAR analysis of small molecule agonists of the kappa opioid receptor via a luminescent beta-arrestin assay - Set 3. [Related pubchem assays (depositor defined):AID1777, AID1785, AID1786, AID1966, AID2133, AID2136, AID2284, AID2500]. The format is functional.
The next assay has as its system Streptococcus. Briefly: Group A Streptococcus viability loss, dose response, counter-screen for streptokinase expression inhibitor project, luminescence, BacTiterGlo (AID 1915).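 Further: potency for reduction of bacterial viability or growth.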 The format is functional, organism-based.
The next assay has as its target T1, Streptokinase A (Streptococcus pyogenes serotype M1, UniProt P10520).
T1 sequence (P10520 whole entry): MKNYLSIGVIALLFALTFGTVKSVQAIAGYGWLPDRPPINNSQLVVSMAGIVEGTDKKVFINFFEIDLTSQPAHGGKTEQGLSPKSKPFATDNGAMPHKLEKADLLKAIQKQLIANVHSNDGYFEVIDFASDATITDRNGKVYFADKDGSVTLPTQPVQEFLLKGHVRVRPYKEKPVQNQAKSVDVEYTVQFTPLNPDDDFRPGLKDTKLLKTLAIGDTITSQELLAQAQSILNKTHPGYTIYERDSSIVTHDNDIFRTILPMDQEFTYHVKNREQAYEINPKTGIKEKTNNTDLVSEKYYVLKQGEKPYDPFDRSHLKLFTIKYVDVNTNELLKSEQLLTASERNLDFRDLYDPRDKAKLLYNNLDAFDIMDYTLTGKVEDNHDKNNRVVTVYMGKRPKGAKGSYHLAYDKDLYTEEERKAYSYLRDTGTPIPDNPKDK
The assay is described as follows: S. pyogenes streptokinase expression inhibitors, potency, dose response, plasminogen activation absorbance, OD405 (AID 1914).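 Further: secreted streptokinase activity via plasminogen activation per viability signal from cell pellet.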 The format is functional, Streptococcus pyogenes M1 GAS.

Assay [2] deals with Streptococcus sp. 'group A'. Briefly: growth inhibition of control SK(-) GAS strain, dose response, counter-screen for streptokinase expression inhibitor project, luminescence, kanamycin, BacTiterGlo, confirmation (AID 1900). The format is functional, organism-based.
Assay [3] is described as follows: Luminescence Cell-Based Dose Retest to Confirm Inhibitors of Cancer Stem Cells. [Related pubchem assays (depositor defined):AID2717, AID2721]. The format is functional. Particulars: Homo sapiens.
Assay [4] is described as follows: growth suppression of PTEN-null colon cells, dose response, cell-based, HCT116 PTEN knockout (AID 1047).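 Further: HCT116 colon tumor cells with PTEN knocked out; cells exposed to compound for 60 hours before readout; potency for loss of cell viability measured by luminescence.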 The format is functional.
Assay [5] is described as follows: growth suppression of beta-catenin-knockout colon cells, dose response, cell-based, HCT116, human colon tumor (AID 1045).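 Further: HCT116 colon tumor cells with beta catenin knocked out; cells exposed to compound for 60 hours.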 The format is functional.
Assay [6] in a line: decrease of PhoP-driven GFP reporter signal, S. Typhimurium, dose response, PhoP regulon inhibitor project, purified and synthesized compounds, set 2 (AID 2831). The format is functional.
A further assay deals with T2, Hexokinase HKDC1 (Homo sapiens, UniProt Q2TB90).
T2 sequence (Q2TB90 whole entry): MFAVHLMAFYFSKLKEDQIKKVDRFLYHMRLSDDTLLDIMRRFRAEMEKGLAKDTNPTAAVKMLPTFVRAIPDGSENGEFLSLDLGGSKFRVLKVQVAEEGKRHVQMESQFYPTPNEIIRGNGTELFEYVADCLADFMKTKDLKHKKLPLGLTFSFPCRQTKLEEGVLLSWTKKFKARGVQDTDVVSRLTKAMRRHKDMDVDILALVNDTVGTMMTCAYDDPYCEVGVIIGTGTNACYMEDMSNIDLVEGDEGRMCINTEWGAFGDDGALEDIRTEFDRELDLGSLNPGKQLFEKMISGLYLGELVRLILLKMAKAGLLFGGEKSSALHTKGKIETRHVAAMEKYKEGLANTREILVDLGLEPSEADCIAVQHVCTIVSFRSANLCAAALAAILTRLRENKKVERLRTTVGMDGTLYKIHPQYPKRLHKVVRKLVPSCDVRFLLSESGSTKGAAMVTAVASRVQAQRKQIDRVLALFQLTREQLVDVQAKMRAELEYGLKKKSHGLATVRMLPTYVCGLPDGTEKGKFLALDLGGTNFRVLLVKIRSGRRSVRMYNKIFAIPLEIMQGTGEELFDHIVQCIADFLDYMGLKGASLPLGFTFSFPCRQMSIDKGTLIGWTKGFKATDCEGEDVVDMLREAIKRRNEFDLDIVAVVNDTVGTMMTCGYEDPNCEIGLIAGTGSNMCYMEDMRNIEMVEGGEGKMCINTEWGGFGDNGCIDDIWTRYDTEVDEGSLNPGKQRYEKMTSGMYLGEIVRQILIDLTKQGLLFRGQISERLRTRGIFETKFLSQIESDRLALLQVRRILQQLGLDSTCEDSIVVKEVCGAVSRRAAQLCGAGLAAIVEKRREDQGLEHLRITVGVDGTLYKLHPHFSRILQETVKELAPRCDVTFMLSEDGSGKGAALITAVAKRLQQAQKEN
The assay is described as follows: HKDC1 hexokinase activators, dose response, biochemical, W721R variant (AID 504730). The format is functional.

A further assay has as its target T3, Hexokinase-1 (Homo sapiens, UniProt P19367).
T3 sequence (P19367 whole entry): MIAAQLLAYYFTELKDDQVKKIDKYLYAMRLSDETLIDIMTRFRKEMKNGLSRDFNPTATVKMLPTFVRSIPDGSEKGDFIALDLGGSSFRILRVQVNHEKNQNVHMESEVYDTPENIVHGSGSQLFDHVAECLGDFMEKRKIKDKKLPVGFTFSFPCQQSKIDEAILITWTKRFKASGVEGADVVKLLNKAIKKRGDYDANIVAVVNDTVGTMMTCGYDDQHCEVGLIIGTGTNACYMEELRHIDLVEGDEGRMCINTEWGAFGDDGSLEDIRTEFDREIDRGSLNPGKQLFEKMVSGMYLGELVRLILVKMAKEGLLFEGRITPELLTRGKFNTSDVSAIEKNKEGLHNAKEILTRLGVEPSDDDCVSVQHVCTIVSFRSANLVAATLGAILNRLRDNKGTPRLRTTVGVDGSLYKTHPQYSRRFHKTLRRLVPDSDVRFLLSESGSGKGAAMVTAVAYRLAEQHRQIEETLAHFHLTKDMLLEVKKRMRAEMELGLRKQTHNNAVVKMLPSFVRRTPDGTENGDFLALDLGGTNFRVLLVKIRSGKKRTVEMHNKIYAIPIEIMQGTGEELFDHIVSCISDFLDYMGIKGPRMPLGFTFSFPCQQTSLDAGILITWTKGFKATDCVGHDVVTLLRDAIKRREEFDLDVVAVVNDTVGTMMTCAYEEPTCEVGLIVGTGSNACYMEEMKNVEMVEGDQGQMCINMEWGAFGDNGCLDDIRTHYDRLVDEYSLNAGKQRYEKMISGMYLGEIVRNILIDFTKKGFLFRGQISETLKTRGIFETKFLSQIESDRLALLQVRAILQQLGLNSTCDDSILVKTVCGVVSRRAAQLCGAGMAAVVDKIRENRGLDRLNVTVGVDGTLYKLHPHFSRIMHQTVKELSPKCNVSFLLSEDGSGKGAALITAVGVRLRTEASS
Briefly: hexokinase 1 activators, dose response, selectivity assay for HKDC1 activator project, biochemical (AID 504762). The format is functional.

For assay [7], the target named is T4, Tyrosine-protein phosphatase non-receptor type 22 (Homo sapiens, UniProt Q9Y2R2).
T4 sequence (Q9Y2R2 whole entry): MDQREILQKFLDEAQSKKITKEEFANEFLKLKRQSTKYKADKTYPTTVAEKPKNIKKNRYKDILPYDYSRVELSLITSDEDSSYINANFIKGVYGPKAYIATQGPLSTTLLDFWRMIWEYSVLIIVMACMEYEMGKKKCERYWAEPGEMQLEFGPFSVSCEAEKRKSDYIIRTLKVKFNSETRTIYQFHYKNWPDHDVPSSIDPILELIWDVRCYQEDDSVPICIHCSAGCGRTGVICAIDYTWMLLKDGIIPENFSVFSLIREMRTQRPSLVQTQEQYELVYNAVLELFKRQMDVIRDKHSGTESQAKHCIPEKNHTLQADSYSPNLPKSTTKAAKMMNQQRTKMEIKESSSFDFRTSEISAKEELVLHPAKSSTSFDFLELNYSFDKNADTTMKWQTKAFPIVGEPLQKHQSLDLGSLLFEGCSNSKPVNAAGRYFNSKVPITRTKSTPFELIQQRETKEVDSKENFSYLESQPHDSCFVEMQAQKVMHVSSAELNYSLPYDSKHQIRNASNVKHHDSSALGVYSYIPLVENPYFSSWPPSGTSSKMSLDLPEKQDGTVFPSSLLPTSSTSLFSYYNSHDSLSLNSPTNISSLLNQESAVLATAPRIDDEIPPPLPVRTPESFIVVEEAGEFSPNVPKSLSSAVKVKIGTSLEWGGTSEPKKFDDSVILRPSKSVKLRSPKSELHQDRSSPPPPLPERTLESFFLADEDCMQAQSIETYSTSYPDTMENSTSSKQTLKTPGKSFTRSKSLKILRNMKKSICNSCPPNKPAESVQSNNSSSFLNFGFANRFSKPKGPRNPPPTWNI
Briefly: SAR LYP1 Fluorescent Assay using OMFP substrate for In Vitro dose response studies - Set 3. [Related pubchem assays (depositor defined):AID1779, AID1784, AID2140, AID2686]. The format is functional.

For assay [8], the target named is Tyrosine-protein phosphatase non-receptor type 12 (Homo sapiens, UniProt Q05209). Briefly: SAR Selectivity Analysis of small molecule inhibitors of PEST using pCAP in a fluorescence assay. [Related pubchem assays (depositor defined):AID1779, AID1784, AID2135]. The format is functional.
The target in assay [9] is T4, Tyrosine-protein phosphatase non-receptor type 22. Briefly: SAR LYP1 Fluorescent Assay using OMFP substrate for In Vitro dose response studies - Set 2. [Related pubchem assays (depositor defined):AID1779, AID1784, AID2140, AID449726, AID488869]. The format is functional.
Assay [10] has as its target T5, Tyrosine-protein phosphatase non-receptor type 7 (Homo sapiens, UniProt P35236).
T5 sequence (P35236 whole entry): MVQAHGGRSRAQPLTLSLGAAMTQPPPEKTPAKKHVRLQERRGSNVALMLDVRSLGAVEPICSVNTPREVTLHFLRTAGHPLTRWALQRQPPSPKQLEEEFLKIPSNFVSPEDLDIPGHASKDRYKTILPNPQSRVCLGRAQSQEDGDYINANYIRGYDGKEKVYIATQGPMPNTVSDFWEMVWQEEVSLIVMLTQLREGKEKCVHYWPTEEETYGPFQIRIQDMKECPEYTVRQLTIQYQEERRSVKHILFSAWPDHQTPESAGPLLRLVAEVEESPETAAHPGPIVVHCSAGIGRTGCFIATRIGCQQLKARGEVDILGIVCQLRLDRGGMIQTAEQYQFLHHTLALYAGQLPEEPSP
The assay is described as follows: HePTP (PTPN7) phosphatase inhibitor potency, SAR follow-up, biochemical, set 2 (AID 449736). The format is functional.

Assay [11] has as its target T4, Tyrosine-protein phosphatase non-receptor type 22. Briefly: SAR LYP1 Fluorescent Assay using pCAP substrate for In Vitro dose response studies - Set 2. [Related pubchem assays (depositor defined):AID1779, AID1784, AID2135, AID449727]. The format is functional.
Assay [12] addresses T6, Cannabinoid receptor 2 (Homo sapiens, UniProt P34972). Briefly: SAR analysis of antagonists of the Cannabinoid Receptor 2 using an Image-Based Assay - Set 3. [Related pubchem assays (depositor defined):AID2013, AID2026]. The format is functional.
Assay [13] addresses T7, Cannabinoid receptor 1 (Homo sapiens, UniProt P21554). The assay is described as follows: SAR analysis of antagonists of the Cannabinoid Receptor 1 using an Image-Based Assay - Set 4. [Related pubchem assays (depositor defined):AID2013, AID2026]. The format is functional.
Assay [14] concerns the target T8, G-protein coupled receptor 35 (Homo sapiens, UniProt Q9HC97). Briefly: SAR analysis of Antagonists of the GPR35 Receptor using an Image-Based Assay - Set 6. [Related pubchem assays (depositor defined):AID2013, AID2026]. The format is functional.
For assay [15], the target named is T7, Cannabinoid receptor 1. The assay is described as follows: SAR analysis of agonists of the Cannabinoid Receptor 1 using an Image-Based Assay - Set 4. [Related pubchem assays (depositor defined):AID2013, AID2026]. The format is functional.
Assay [16] concerns the target T8, G-protein coupled receptor 35. Briefly: SAR analysis of Agonists of the GPR35 Receptor using an Image-Based Assay - Set 4. [Related pubchem assays (depositor defined):AID2013, AID2026]. The format is functional.
Assay [17] addresses T6, Cannabinoid receptor 2. Briefly: SAR analysis of agonists of the Cannabinoid Receptor 2 using an Image-Based Assay - Set 3. [Related pubchem assays (depositor defined):AID2013, AID2026]. The format is functional.
The target of assay [18] is G-protein coupled receptor 55 (Homo sapiens, UniProt Q9Y2T6). Briefly: SAR Analysis of Selective Antagonists of GPR55 using an Image-Based Assay - Set 4. [Related pubchem assays (depositor defined):AID2013, AID2026]. The format is functional.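 Further: antagonism of response to 5 µM lysophosphatidylinositol agonist.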

The source made the active and inactive calls.
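Wherever AC50 is given: cells exposed to compound for roughly 70 hours or longer before luminescence read.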

T8 sequence (Q9HC97 whole entry): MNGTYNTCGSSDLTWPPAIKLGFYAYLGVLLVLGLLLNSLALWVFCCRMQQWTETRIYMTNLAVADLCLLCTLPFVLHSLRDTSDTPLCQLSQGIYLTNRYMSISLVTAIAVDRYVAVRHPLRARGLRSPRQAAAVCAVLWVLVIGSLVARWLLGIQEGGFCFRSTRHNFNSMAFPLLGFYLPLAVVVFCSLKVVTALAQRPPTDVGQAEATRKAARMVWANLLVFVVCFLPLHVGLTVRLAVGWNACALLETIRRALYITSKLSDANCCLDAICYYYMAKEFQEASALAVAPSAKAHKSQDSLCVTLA
T7 sequence (P21554 whole entry): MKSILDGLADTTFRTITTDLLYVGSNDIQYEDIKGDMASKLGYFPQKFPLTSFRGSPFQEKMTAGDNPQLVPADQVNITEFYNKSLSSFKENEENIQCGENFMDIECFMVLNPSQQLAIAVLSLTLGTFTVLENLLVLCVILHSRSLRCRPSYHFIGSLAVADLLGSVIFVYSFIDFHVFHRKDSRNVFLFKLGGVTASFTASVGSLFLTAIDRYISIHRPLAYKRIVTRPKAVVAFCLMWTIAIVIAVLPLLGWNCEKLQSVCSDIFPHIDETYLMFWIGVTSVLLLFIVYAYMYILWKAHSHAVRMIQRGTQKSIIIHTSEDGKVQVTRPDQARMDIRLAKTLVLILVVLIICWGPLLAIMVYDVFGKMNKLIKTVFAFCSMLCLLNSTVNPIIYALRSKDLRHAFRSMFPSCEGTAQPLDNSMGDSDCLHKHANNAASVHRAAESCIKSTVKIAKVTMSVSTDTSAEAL
T6 sequence (P34972 whole entry): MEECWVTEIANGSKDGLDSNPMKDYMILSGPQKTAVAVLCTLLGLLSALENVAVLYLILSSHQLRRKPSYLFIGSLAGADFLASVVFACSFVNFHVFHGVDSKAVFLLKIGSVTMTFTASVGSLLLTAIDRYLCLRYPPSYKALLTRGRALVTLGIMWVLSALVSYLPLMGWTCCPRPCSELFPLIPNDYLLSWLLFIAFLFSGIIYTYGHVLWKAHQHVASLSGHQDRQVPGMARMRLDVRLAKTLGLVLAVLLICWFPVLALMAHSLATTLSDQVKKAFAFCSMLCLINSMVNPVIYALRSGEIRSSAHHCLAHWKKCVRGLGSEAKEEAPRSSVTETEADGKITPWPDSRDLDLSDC
Chain of Tyrosine-protein phosphatase non-receptor type 12 (Q05209 whole entry): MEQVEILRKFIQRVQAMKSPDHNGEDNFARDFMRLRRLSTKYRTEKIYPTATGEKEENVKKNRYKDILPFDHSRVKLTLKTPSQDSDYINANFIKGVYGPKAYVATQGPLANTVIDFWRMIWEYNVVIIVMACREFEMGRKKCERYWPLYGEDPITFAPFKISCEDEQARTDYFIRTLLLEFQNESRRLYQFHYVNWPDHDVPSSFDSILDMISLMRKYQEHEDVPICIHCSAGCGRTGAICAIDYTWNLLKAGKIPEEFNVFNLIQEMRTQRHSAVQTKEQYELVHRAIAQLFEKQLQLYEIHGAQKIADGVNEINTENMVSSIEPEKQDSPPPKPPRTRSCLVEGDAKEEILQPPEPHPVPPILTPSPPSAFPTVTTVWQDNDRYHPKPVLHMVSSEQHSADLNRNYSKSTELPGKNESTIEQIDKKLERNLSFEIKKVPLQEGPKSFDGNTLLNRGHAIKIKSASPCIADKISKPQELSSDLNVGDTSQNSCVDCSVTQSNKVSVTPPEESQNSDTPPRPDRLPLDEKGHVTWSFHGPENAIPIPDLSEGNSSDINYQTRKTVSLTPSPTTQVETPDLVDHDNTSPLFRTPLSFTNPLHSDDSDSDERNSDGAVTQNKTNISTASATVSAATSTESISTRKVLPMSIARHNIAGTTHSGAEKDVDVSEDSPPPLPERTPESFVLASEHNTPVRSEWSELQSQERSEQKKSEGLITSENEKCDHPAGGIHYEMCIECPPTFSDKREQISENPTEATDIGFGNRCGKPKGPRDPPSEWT
Chain of G-protein coupled receptor 55 (Q9Y2T6 whole entry): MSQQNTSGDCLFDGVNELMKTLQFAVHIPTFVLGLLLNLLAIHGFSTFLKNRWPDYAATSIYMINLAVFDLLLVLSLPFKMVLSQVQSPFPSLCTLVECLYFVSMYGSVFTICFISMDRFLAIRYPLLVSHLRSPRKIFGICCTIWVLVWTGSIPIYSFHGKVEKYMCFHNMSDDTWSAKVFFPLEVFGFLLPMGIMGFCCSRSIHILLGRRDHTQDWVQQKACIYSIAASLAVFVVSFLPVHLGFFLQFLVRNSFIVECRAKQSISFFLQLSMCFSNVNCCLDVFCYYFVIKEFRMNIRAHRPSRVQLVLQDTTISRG
Chain of Kappa-type opioid receptor (P41145 whole entry): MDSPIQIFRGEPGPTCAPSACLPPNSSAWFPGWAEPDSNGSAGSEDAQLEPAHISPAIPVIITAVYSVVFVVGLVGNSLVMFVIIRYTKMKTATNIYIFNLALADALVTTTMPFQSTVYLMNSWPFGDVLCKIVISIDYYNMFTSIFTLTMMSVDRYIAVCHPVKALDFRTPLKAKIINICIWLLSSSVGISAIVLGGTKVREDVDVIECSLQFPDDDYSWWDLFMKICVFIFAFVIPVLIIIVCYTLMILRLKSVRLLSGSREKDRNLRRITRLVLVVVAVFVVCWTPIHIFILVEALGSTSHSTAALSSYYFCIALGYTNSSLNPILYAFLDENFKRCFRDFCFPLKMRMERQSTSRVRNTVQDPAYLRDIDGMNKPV

For the compound `FC(F)(F)c1cc(CSc2nnc(-c3ccccn3)n2Cc2ccccc2)ccc1Cl`, the half-maximal effective concentration (EC50) in [1] is 2.22 µM (active).
As for `CN1CCN(C2=Cc3cc(Cl)ccc3Sc3cc(F)ccc32)CC1`, the EC50 in the assay on Streptococcus was 12 µM (active); on Streptokinase A it was > 150 µM (not active); in assay [2], 7.44 µM (active); in [4], 9.39 µM (active); in assay [5], 10.5 µM (active). Besides, the AC50 in assay [3] was 6.63 µM (active). The IC50 in [6] was > 125 µM (active).
On to `CCOC(=O)c1c(C)[nH]c(C2=NN=C(Nc3ccccc3OC)SC2)c1C`, for which the EC50 is 15 µM (active) at Hexokinase HKDC1 and 15.3 µM (active) at Hexokinase-1.
On to `COc1cc(/C=C(\C#N)C(=O)Nc2cccc(C(=O)O)c2)ccc1OCc1ccc(C)cc1`, for which the IC50 in assay [7] was 5.39 µM (active); in assay [8], 2.69 µM (active); in assay [9], 14.7 µM (active); in [10], 2.02 µM (active); in assay [11], 22.1 µM (active).
Regarding `N=c1c(C(=O)NCc2ccco2)cc2c(=O)n3ccccc3nc2n1C1CCCC1`, the IC50 on Cannabinoid receptor 2 [12] was > 32 µM (inactive); on Cannabinoid receptor 1 [13] it was 31.5 µM (inactive); in assay [14], > 32 µM (inactive); in [18] it was 28.3 µM (inactive). The EC50 is > 32 µM (inactive) at Cannabinoid receptor 1 [15], > 32 µM (inactive) in assay [16] and 2.13 µM (active) at Cannabinoid receptor 2 [17].

(Values after ChEMBL document CHEMBL1201862, “PubChem BioAssay data set” (2004).)
